According to article PMC6375994, “Macrophage Migration Inhibitory Factor Acts as the Potential Target of a Newly Synthesized Compound, 1-(9′-methyl-3′-carbazole)-3, 4-dihydro-β-carboline” (Scientific Reports, 2019):

Biological target: T1, recombinant human MIF protein (Homo sapiens, UniProt P14174)
T1 construct: commercial recombinant human MIF (PeproTech), amine-coupled to CM7 chip; homotrimer
T1 sequence (P14174 2-115): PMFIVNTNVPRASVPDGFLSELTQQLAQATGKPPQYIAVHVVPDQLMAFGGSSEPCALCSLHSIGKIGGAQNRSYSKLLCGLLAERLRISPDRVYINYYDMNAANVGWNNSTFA
Experiment: surface plasmon resonance (Biacore T200)
Type: binding

Cn1c2ccccc2c2cc(C3=NCCc4c3[nH]c3ccccc43)ccc21 [compound 7, 1-(9′-methyl-3′-carbazole)-3,4-dihydro-β-carboline]
Kd: 725 nM
